# Tests used:
# Format in all cases: physicochemical
# [1] = Competitive slurries of Form B and C in process relevant solvents; settings: 72 hours, start Form B + C
# Experimental: Determination of the relative stabilities of Form B and Form C was undertaken to identify which material was more thermodynamically stable in process relevant solvents. As a suspected solvate was isolated from experiments where DMAC was used as a solvent, only DMSO and acetic acid were determined to be appropriate process solvents. Combinations of these solvents with relevant antisolvents were therefore selected for the competitive slurry experiments.
# Compound 1 (from Example 2) was dispensed into HPLC vials. To these, 1 ml of selected solvents was subsequently added to give a suspension. Materials were slurried for 72 hours at 90° C., 50° C. or 25° C. with 500 rpm stirring. Material was subsequently isolated by centrifugation and analyzed by XRPD.
# Water activity study = settings: 4 days, start Form A + Form B
# Experimental: About 15 mg of Form A and 15 mg of Form B were added to the saturated solutions of different water activities and equilibrated at 25° C. and 50° C. for 4 days, respectively. The resulting suspensions were filtered, and the solid parts (wet cake) were investigated by XRPD to determine the polymorph.
# According to XRPD results, Form B was obtained in methanol/water with water activity (a.w.) ranging from 0.1 to 0.9 at 25° C., as shown in FIGS. 20A-20B. At 50° C., Form B was obtained in methanol/water with a.w. ≥0.2, whereas a mixture of Form A and Form B was obtained in a.w. […] The water activity of the binary solvent system was calculated based on UNIFAC method (UNIQUAC Functional-group Activity Coefficients).
# [2] = Solubility and metastable zone width by Crystal 16; settings: for metastable zone width: 0.5° C./min
# Experimental: A Crystal 16 crystallization system (Technobis, NL) was used to determine the solubility and metastable zone of the material as a function of temperature. Slurries of the API, in different overall concentrations, were prepared by adding a known amount of solid to a known amount of chilled solvent (between 0.5 and 1.5 ml) and stirred at 350 rpm using a magnetic bar. The saturation temperature was measured through cycles of heating and cooling from 20 to 90° C. at 0.5° C./min.
# Upon increasing the temperature, the solid completely dissolved and the suspension became a clear solution such that the light transmission reached its maximum value. This temperature was assigned as the clear point, which was assumed to coincide with the saturation temperature. Then, by cooling the solution at a rate of 0.5° C./min, the temperature at which particles first formed was detected by a decrease in the light transmission. This was assigned as the cloud point. The points were fitted by a Van′t Hoff equation and the difference between the cloud and the clear points defined the metastable zone width (MSZW) of the system. The instrument control software was Crystallization Systems and the data were analyzed using Crystal Clear and Microsoft Excel.
# The solubility of compound 1 (various masses) in DMAC and DMSO (1 ml) was analyzed on the Crystal 16 (between 25-90° C. for DMSO and 0-90° C. for DMAC). A heating/cooling rate of 0.5° C./min and a stirring rate of 300 rpm was used for all samples. The resulting turbidity/temperature plots were analyzed to obtain solubility curves and determine the metastable zone width. Any precipitated solids were isolated by filtration and analyzed by XRPD.
smiles,measurement,setting,value
"O=C(O)[C@H]1C[C@@H](N2CCc3oc(-c4ccc(OCc5ccc(Cl)cc5)cc4)nc3C2)C1 [Compound 1, (1s,3s)-3-(2-(4-((4-chlorobenzyl)oxy)phenyl)-6,7-dihydrooxazolo[4,5-c]pyridin-5(4H)-yl)cyclobutane-1-carboxylic acid]",XRPD analysis after slurrying,"[1]; Acetic acid:H2O (1:1), 25° C.",Form B
same,XRPD analysis after slurrying,"[1]; Acetic acid:H2O (1:1), 50° C.",Form B
same,XRPD analysis after slurrying,"[1]; Acetic acid:H2O (1:1), 90° C.",Form B
same,XRPD analysis after slurrying,"[1]; Acetic acid:MeCN (1:3), 25° C.",Form B
same,XRPD analysis after slurrying,"[1]; Acetic acid:MeCN (1:3), 50° C.",Form B
same,XRPD analysis after slurrying,"[1]; Acetic acid:MeCN (1:3), 90° C.",Form B
same,XRPD analysis after slurrying,"[1]; DMSO, 25° C.",Form B
same,XRPD analysis after slurrying,"[1]; DMSO, 50° C.",Poorly crystalline
same,XRPD analysis after slurrying,"[1]; DMSO, 90° C.",poorly crystalline Form A
same,XRPD analysis after slurrying,"[1]; DMSO:H2O (1:1), 25° C.",Form B
same,XRPD analysis after slurrying,"[1]; DMSO:H2O (1:1), 50° C.",Form B
same,XRPD analysis after slurrying,"[1]; DMSO:H2O (1:1), 90° C.",Form B
same,XRPD of solid after equilibration,"Water activity study; Methanol/water (20:80, v/v) a.w. = 0.9, 25° C.",Form B
same,XRPD of solid after equilibration,"Water activity study; Methanol/water (20:80, v/v) a.w. = 0.9, 50° C.",Form B
same,XRPD of solid after equilibration,"Water activity study; Methanol/water (57:43, v/v) a.w. = 0.7, 25° C.",Form B
same,XRPD of solid after equilibration,"Water activity study; Methanol/water (57:43, v/v) a.w. = 0.7, 50° C.",Form B
same,XRPD of solid after equilibration,"Water activity study; Methanol/water (69:31, v/v) a.w. = 0.6, 25° C.",Form B
same,XRPD of solid after equilibration,"Water activity study; Methanol/water (69:31, v/v) a.w. = 0.6, 50° C.",Form B
same,XRPD of solid after equilibration,"Water activity study; Methanol/water (77:23, v/v) a.w. = 0.5, 25° C.",Form B
same,XRPD of solid after equilibration,"Water activity study; Methanol/water (77:23, v/v) a.w. = 0.5, 50° C.",Form B
same,XRPD of solid after equilibration,"Water activity study; Methanol/water (84:16, v/v) a.w. = 0.4, 25° C.",Form B
same,XRPD of solid after equilibration,"Water activity study; Methanol/water (84:16, v/v) a.w. = 0.4, 50° C.",Form B
same,XRPD of solid after equilibration,"Water activity study; Methanol/water (89:11, v/v) a.w. = 0.3, 25° C.",Form B
same,XRPD of solid after equilibration,"Water activity study; Methanol/water (89:11, v/v) a.w. = 0.3, 50° C.",Form B
same,XRPD of solid after equilibration,"Water activity study; Methanol/water (93:7, v/v) a.w. = 0.2, 25° C.",Form B
same,XRPD of solid after equilibration,"Water activity study; Methanol/water (93:7, v/v) a.w. = 0.2, 50° C.",Form B
same,XRPD of solid after equilibration,"Water activity study; Methanol/water (97:3, v/v) a.w. = 0.1, 25° C.",Form B
same,XRPD of solid after equilibration,"Water activity study; Methanol/water (97:3, v/v) a.w. = 0.1, 50° C.",Form A + B
same,metastable zone width,"[2]; DMAC, 0-90° C.",ca. 30 °C
same,metastable zone width,"[2]; DMSO, 25-90° C.",ca. 30 °C
same,solubility,[2]; neat acetic acid,very high solubility
